# How the values were obtained:
# Assay in all cases: relative viability (nuclei count vs DMSO), 5 days (fraction); higher = more cells survive
# [1] = compound: CN1CCN(CC1)C2=CC(=C(C=C2)NC3=NC(=C(S3)C(=O)C4=C(C=CC=C4Cl)Cl)N)OC [XMD14-99] + CC(=O)Nc1cccc(-n2c(=O)n(C3CC3)c(=O)c3c(Nc4ccc(I)cc4F)n(C)c(=O)c(C)c32)c1 [Trametinib] (partner 0.02 µM)
# Procedure, shortened: (§1)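 Five library-drug doses in √10 steps were combined with a fixed anchor-drug dose, or a single drug was given alone, by pin tool to lung cancer cell lines in 1536-well plates the day after seeding. Nuclei were stained and counted after 5 days. Relative viability is the nuclei count in treated wells over that in vehicle wells, taken as the median of duplicate plates.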
# [2] = compound: CN1CCN(CC1)C2=CC(=C(C=C2)NC3=NC(=C(S3)C(=O)C4=C(C=CC=C4Cl)Cl)N)OC [XMD14-99] + CC(C)C[C@H](NC(=O)[C@H](Cc1ccccc1)NC(=O)c1cnccn1)B(O)O [Bortezomib] (partner 0.002 µM)
# Procedure, shortened: as §1
# [3] = compound: N[C@@H]1CCCN(c2c(/C=C3\SC(=O)NC3=O)cccc2-c2ccccc2)C1 [AZD1208] + CC1(C)CCC(c2ccc(Cl)cc2)=C(CN2CCN(c3ccc(C(=O)NS(=O)(=O)c4ccc(N[C@H](CCN5CCOCC5)CSc5ccccc5)c(S(=O)(=O)C(F)(F)F)c4)cc3)CC2)C1 [Navitoclax] (partner 0.5 µM)
# Procedure, shortened: as §1
# [4] = compound: N[C@@H]1CCCN(c2c(/C=C3\SC(=O)NC3=O)cccc2-c2ccccc2)C1 [AZD1208] + Cc1cc(Nc2cc(N3CCN(C)CC3)nc(Sc3ccc(NC(=O)C4CC4)cc3)n2)n[nH]1 [Tozasertib] (partner 0.1 µM)
# Procedure, shortened: as §1
cell line,measurement,setting,value
UMC-11,relative viability,[1]; first compound 0.08 µM,0.744
same,relative viability,[1]; first compound 0.8 µM,0.637
same,relative viability,[1]; first compound 2.53 µM,0.747
same,relative viability,[1]; first compound 8 µM,0.645
same,relative viability,[2]; first compound 0.08 µM,0.701
same,relative viability,[2]; first compound 0.8 µM,0.775
same,relative viability,[2]; first compound 2.53 µM,0.673
same,relative viability,[2]; first compound 8 µM,0.526
same,relative viability,[3]; first compound 0.08 µM,0.272
same,relative viability,[3]; first compound 0.253 µM,0.301
same,relative viability,[3]; first compound 0.8 µM,0.251
same,relative viability,[3]; first compound 2.53 µM,0.236
same,relative viability,[3]; first compound 8 µM,0.195
same,relative viability,[4]; first compound 0.08 µM,0.204
same,relative viability,[4]; first compound 0.253 µM,0.205
same,relative viability,[4]; first compound 0.8 µM,0.211
same,relative viability,[4]; first compound 2.53 µM,0.207
same,relative viability,[4]; first compound 8 µM,0.21

# Source: the supplement of paper PMC10307832
